Patent US7605156B2, “Methods for the use of inhibitors of cytosolic phospholipase A2” (Wyeth, priority 2001, dated 2009)
pIC50: −log10 of the molar value.

Biological target: T1, cPLA2 (Homo sapiens, UniProt P47712)
T1 sequence (P47712 1-749): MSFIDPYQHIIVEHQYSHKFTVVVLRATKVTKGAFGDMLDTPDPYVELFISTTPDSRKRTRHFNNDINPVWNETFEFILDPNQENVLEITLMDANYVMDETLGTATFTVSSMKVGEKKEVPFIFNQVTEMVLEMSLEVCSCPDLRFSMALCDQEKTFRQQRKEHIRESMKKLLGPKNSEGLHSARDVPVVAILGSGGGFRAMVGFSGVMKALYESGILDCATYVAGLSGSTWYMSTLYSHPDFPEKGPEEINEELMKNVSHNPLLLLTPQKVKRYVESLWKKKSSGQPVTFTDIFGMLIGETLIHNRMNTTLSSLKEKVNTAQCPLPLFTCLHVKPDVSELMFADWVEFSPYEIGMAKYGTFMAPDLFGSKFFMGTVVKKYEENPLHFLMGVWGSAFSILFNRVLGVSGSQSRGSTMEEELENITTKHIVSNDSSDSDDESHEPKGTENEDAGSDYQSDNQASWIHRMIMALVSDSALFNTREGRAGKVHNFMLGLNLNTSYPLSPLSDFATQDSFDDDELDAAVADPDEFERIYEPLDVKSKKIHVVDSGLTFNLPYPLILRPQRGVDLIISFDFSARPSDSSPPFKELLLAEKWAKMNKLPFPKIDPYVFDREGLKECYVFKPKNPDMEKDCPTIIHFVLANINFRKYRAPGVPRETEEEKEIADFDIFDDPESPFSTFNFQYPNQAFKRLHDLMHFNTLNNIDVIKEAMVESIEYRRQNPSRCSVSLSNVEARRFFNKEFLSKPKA
Assay: Coumarine assay (hydrolysis of 7-hydroxycoumarinyl 6-heptenoate)
Format: biochemical
Details: 60 μM 7-hydroxycoumarinyl 6-heptenoate, pH 7.5; read-out: Coumarin IC50
Procedure: Inhibitors were mixed with 200 μL assay buffer (80 mM Heped, pH 7.5, 1 mM EDTA) containing 60 μM 7-hydroxycoumarinyl 6-heptenoate. The reaction was initiated by adding 4 μg cPLA2 in 50 μL assay buffer. Hydrolysis of the 7-hydroxycounarimyl 6-heptenoate ester was monitored in a fluorometer by exciting at 360 nm and monitoring emission at 460 nm. Enzyme activity is proportional to the increase in emission at 460 nm per minute. In the presence of a cPLA2 inhibitor, the rate of increase is less.

SMILES	pIC50
CC1CCCN(CCS(=O)(=O)NCCc2c(CCOc3ccc(C(=O)O)cc3)c3cc(Cl)ccc3n2C(c2ccccc2)c2ccccc2)C1 (stereo not shown) [Example 246, 4-(2-{I-benzhydryl-5-chloro-2-[2-({[2-(3-methylpiperidin-1-yl)ethyl]sulfonyl}amino)ethyl]-1H-indol-3-yl}ethoxy)benzoic acid]	5.92
NC(=O)C1CCCN1CCS(=O)(=O)NCCc1c(CCOc2ccc(C(=O)O)cc2)c2cc(Cl)ccc2n1C(c1ccccc1)c1ccccc1 (stereo not shown) [Example 247, 4-[2-(1-Benzhydryl-2-{2-[2-(2-carbamoyl-pyrrolidin-1-yl)-ethanesulfonylamino]-ethyl}-5-chloro-1H-indol-3-yl)-ethoxy]-benzoic acid]	5.92
COC[C@@H]1CCCN1CCS(=O)(=O)NCCc1c(CCOc2ccc(C(=O)O)cc2)c2cc(Cl)ccc2n1C(c1ccccc1)c1ccccc1 [Example 248, 4-[2-(1-benzhydryl-5-chloro-2-{2-[({2-[(2S)-2-(methoxymethyl)pyrrolidin-1-yl]ethyl}sulfonyl)amino]ethyl}-1H-indol-3-yl)ethoxy]benzoic acid]	5.92
CCC1CCCCN1CCS(=O)(=O)NCCc1c(CCOc2ccc(C(=O)O)cc2)c2cc(Cl)ccc2n1C(c1ccccc1)c1ccccc1 (stereo not shown) [Example 249, 4-(2-{1-benzhydryl-5-chloro-2-[2-({[2-(2-ethylpiperidin-1-yl)ethyl]sulfonyl}amino)ethyl]-1H-indol-3-yl}ethoxy)benzoic acid]	6.17
O=C(O)c1ccc(OCCc2c(CCNS(=O)(=O)CCN3C[C@@H]4C[C@H]3CO4)n(C(c3ccccc3)c3ccccc3)c3ccc(Cl)cc23)cc1 [Example 251]	5.82
CC(C)C1CCCN1CCS(=O)(=O)NCCc1c(CCOc2ccc(C(=O)O)cc2)c2cc(Cl)ccc2n1C(c1ccccc1)c1ccccc1 (stereo not shown) [Example 252, 4-(2-{1-benzhydryl-5-chloro-2-[2-({[2-(2-isopropylpyrrolidin-1-yl)ethyl]sulfonyl}amino)ethyl]-1H-indol-3-yl}ethoxy)benzoic acid]	6.14
O=C(O)c1ccc(CCCc2c(CCNS(=O)(=O)c3ccccc3Cl)n(C(c3ccccc3)c3ccccc3)c3ccc(Cl)cc23)cc1 [Example 254, 4-{3-[1-benzhydryl-5-chloro-2-(2-{[(2-chlorophenyl)sulfonyl]amino}ethyl)-1H-indol-3-yl]propyl}benzoic acid]	6.59
O=C(O)c1ccc(OCCc2c(CCNS(=O)(=O)c3ccccc3Cl)n(C(c3ccccc3)c3ccccc3)c3ccc(Cl)cc23)cc1 [Example 255, 4-{2-[1-benzhydryl-5-chloro-2-(2{[(2-chlorophenyl)sulfonyl]amino}ethyl)-1H-indol-3-yl]ethoxy}benzoic acid]	6.30
O=C(O)c1ccc(S(=O)(=O)CCc2c(CCNS(=O)(=O)c3ccccc3Cl)n(C(c3ccccc3)c3ccccc3)c3ccc(Cl)cc23)cc1 [Example 256, 4-({2-[1-benzhydryl-5-chloro-2-(2-{[(2-chlorophenyl)sulfonyl]amino}ethyl)-1H-indol-3-yl]ethyl}sulfonyl)benzoic acid]	6.22
Cc1nc(S(=O)(=O)NCCc2c(CCCc3ccc(C(=O)O)cc3)c3cc(Cl)ccc3n2C(c2ccccc2)c2ccccc2)cn1C [Example 257, 4-{3-[1-benzhydryl-5-chloro-2-(2-{[(1,2-dimethyl-1H-imidazol-4-yl)sulfonyl]amino}ethyl)-1H-indol-3-yl]propyl}benzoic acid]	6.30
Cc1nc(S(=O)(=O)NCCc2c(CCOc3ccc(C(=O)O)cc3)c3cc(Cl)ccc3n2C(c2ccccc2)c2ccccc2)cn1C [Example 258, 4-{2-[1-benzhydryl-5-chloro-2-(2-{[(1,2-dimethyl-1H-imidazol-4-yl)sulfonyl]amino}ethyl)-1H-indol-3-yl]ethoxy}benzoic acid]	6.10
O=C(O)CCc1ccc(S(=O)(=O)CCc2c(CCNS(=O)(=O)c3ccccc3Cl)n(C(c3ccccc3)c3ccccc3)c3ccc(Cl)cc23)cc1 [Example 259, 3-[4-({2-[1-benzhydryl-5-chloro-2-(2-{[(2-chlorophenyl)sulfonyl]amino}ethyl)-1H-indol-3-yl]ethyl}sulfonyl)phenyl]propanoic acid]	6.70
Cc1ccc(S(=O)(=O)NCCc2c(CCOc3ccc(C(=O)O)cc3)c3cc(Cl)ccc3n2C(c2ccccc2)c2ccccc2)cc1Cl [Example 260, 4-{2-[1-benzhydryl-5-chloro-2-(2-{[(3-chloro-4-methylphenyl)sulfonyl]amino}ethyl)-1H-indol-3-yl]ethoxy}benzoic acid]	6.43
Cc1ccc(S(=O)(=O)NCCc2c(CCCc3ccc(C(=O)O)cc3)c3cc(Cl)ccc3n2C(c2ccccc2)c2ccccc2)cc1Cl [Example 261, 4-{3-[1-benzhydryl-5-chloro-2-(2-([(3-chloro-4-methylphenyl)sulfonyl]amino}ethyl)-1H-indol-3-yl]propyl}benzoic acid]	6.60
Cc1c(Cl)cc(F)cc1S(=O)(=O)NCCc1c(CCOc2ccc(C(=O)O)cc2)c2cc(Cl)ccc2n1C(c1ccccc1)c1ccccc1 [Example 262, 4-{2-[1-benzhydryl-5-chloro-2-(2-{[(3-chloro-5-fluoro-2-methylphenyl)sulfonyl]amino}ethyl)-1H-indol-3-yl]ethoxy}benzoic acid]	6.28
Cc1c(Cl)cc(F)cc1S(=O)(=O)NCCc1c(CCCc2ccc(C(=O)O)cc2)c2cc(Cl)ccc2n1C(c1ccccc1)c1ccccc1 [Example 263, 4-{3-[1-benzhydryl-5-chloro-2-(2-{[(3-chloro-5-fluoro-2-methylphenyl)sulfonyl]amino}ethyl)-1H-indol-3-yl]propyl}benzoic acid]	6.49
O=C(O)c1ccc(CCCc2c(CCNS(=O)(=O)c3ccccc3[N+](=O)[O-])n(C(c3ccccc3)c3ccccc3)c3ccc(Cl)cc23)cc1 [Example 264, 4-{3-[1-benzhydryl-5-chloro-2-(2-{[(2-nitrophenyl)sulfonyl]amino}ethyl)-1H-indol-3-yl]propyl}benzoic acid]	6.40
O=C(O)c1ccc(OCCc2c(CCNS(=O)(=O)c3ccccc3[N+](=O)[O-])n(C(c3ccccc3)c3ccccc3)c3ccc(Cl)cc23)cc1 [Example 265, 4-{2-[1-benzhydryl-5-chloro-2-(2-{[(2-nitrophenyl)sulfonyl]amino}ethyl)-1H-indol-3-yl]ethoxy}benzoic acid]	6.43
Cc1cc(C)c(S(=O)(=O)NCCc2c(CCOc3ccc(C(=O)O)cc3)c3cc(Cl)ccc3n2C(c2ccccc2)c2ccccc2)c(C)c1 [Example 266, 4-[2-(1-benzhydryl-5-chloro-2-{2-[(mesitylsulfonyl)amino]ethyl}-1H-indol-3-yl)ethoxy]benzoic acid]	6.80
Cc1cc(C)c(S(=O)(=O)NCCc2c(CCCc3ccc(C(=O)O)cc3)c3cc(Cl)ccc3n2C(c2ccccc2)c2ccccc2)c(C)c1 [Example 267, 4-(3-{1-Benzhydryl-5-chloro-2-[2-(2,4,6-trimethyl-benzenesulfonylamino)-ethyl]-1H-indol-3-yl}-propyl)-benzoic acid]	7.13
O=C(O)c1ccc(CCCc2c(CCNS(=O)(=O)c3c(F)cccc3C(F)(F)F)n(C(c3ccccc3)c3ccccc3)c3ccc(Cl)cc23)cc1 [Example 268, 4-(3-{1-benzhydryl-5-chloro-2-[2-({[2-fluoro-6-(trifluoromethyl)phenyl]sulfonyl}amino)ethyl]-1H-indol-3-yl}propyl)benzoic acid]	7.05
O=C(O)c1ccc(OCCc2c(CCNS(=O)(=O)c3c(F)cccc3C(F)(F)F)n(C(c3ccccc3)c3ccccc3)c3ccc(Cl)cc23)cc1 [Example 269]	6.82
